Test [1] addresses T1, MAPK13 (Homo sapiens (Human), UniProt O15264). The test is described as follows: biochemical.
Test [2] concerns the target T1, MAPK13.

Drawing on patent US11407771B2 (priority 2018, dated 2022), this text covers IC50 for 33 molecules.

Like-named read-outs stand apart in the source and are kept apart here.

T1 sequence (O15264 whole entry): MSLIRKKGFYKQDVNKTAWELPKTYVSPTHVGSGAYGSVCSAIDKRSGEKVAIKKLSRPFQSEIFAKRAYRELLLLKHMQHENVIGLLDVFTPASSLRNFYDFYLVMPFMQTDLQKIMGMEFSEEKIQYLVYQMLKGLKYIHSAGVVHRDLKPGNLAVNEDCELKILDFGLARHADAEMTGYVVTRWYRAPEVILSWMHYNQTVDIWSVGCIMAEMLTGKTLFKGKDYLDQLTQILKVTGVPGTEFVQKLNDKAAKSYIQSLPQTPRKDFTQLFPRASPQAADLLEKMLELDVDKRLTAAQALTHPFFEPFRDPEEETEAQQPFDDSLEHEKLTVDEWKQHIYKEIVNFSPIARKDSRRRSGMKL

On to `COCC(=O)Nc1cc(Oc2ccc(NC(=O)Nc3cc(C4(C)COC4)nn3-c3ccc(C)cc3)c(F)c2)ccn1` [Compound 267, N-[4-[3-fluoro-4-[[5-(3-methyloxetan-3-yl)-2-(p-tolyl)pyrazol-3-yl]carbamoylamino]phenoxy]-2-pyridyl]-2-methoxy-acetamide], for which the IC50 on MAPK13 [1] is less than 0.25 µM.
Turning to `Cc1ccc(-n2nc(C(C)(C)C)cc2NC(=O)Nc2ncc(CCc3ccncc3)s2)cc1` [Compound 270, 1-(5-tert-Butyl-2-p-tolyl-2H-pyrazol-3-yl)-3-[5-(2-pyridin-4-yl-ethyl)-thiazol-2-yl]-urea], the IC50 against MAPK13 [1] is 0.25 to 1 µM.
With `CC(=O)Nc1cc(CCc2ccc(NC(=O)Nc3cc(C(C)(C)C)no3)c(F)c2)ccn1` [Compound 359, N-[4-(2-{4-[3-(3-tert-Butyl-isoxazol-5-yl)-ureido]-3-fluoro-phenyl}-ethyl)-pyridin-2-yl]-acetamide], at MAPK13 [2] (read-out: MAPK13 inhibition), the IC50 was greater than 1 µM.
The same measure, in the same setting: under `CC(=O)Nc1cc(CCc2ccc(NC(=O)Nc3cc(C(F)(F)F)ccc3F)c(F)c2)ccn1` [Compound 360, N-[4-(2-{3-Fluoro-4-[3-(2-fluoro-5-trifluoromethyl-phenyl)-ureido]-phenyl}-ethyl)-pyridin-2-yl]-acetamide] stands greater than 1 µM.
On the same count and under the same terms, then `CC(=O)Nc1cc(CCc2ccc(NC(=O)Nc3cc(C(C)(C)C)nn3C)c(F)c2)ccn1` [Compound 361, N-[4-(2-{4-[3-(5-tert-Butyl-2-methyl-2H-pyrazol-3-yl)-ureido]-3-fluoro-phenyl}-ethyl)-pyridin-2-yl]-acetamide], with greater than 1 µM; and `CCOC(=O)Nc1cc(CCc2cnc(NC(=O)Nc3cc(C(C)(C)C)on3)s2)ccn1` [Compound 364, [4-(2-{2-[3-(5-tert-Butyl-isoxazol-3-yl)-ureido]-thiazol-5-yl}-ethyl)-pyridin-2-yl]-carbamic acid ethyl ester], with less than 0.25 µM; and `CC(=O)Nc1cc(CCc2cnc(NC(=O)Nc3cc(C(C)(C)C)on3)s2)ccn1` [Compound 366, N-[4-(2-{2-[3-(5-tert-Butyl-isoxazol-3-yl)-ureido]-thiazol-5-yl}-ethyl)-pyridin-2-yl]-acetamide], with less than 0.25 µM.
Turning to `CC(C)(C)c1cc(NC(=O)Nc2ncc(CCc3ccnc(NC(=O)C4CC4)c3)s2)[nH]n1` [Compound 368, Cyclopropanecarboxylic acid [4-(2-{2-[3-(5-tert-butyl-2H-pyrazol-3-yl)-ureido]-thiazol-5-yl}-ethyl)-pyridin-2-yl]-amide], the IC50 at MAPK13 [2] (read-out: MAPK13 inhibition) is less than 0.25 µM.
`CC(C)(C)c1cc(NC(=O)Nc2ncc(CCc3ccnc(NC(=O)C4CC4)c3)s2)no1` [Compound 369, Cyclopropanecarboxylic acid [4-(2-{2-[3-(5-tert-butyl-isoxazol-3-yl)-ureido]-thiazol-5-yl}-ethyl)-pyridin-2-yl]-amide]: the IC50 at MAPK13 [2] (read-out: MAPK13 inhibition) is less than 0.25 µM.
The same measure, in the same setting: under `CC(=O)Nc1cc(CCc2ccc(NC(=O)Nc3cc(C(C)(C)C)nn3CC3CC3)c(F)c2)ccn1` [Compound 370, N-[4-(2-{4-[3-(5-tert-Butyl-2-cyclopropylmethyl-2H-pyrazol-3-yl)-ureido]-3-fluoro-phenyl}-ethyl)-pyridin-2-yl]-acetamide] stands greater than 1 µM.
Turning to `CC(=O)Nc1cc(CCc2ccc(NC(=O)Nc3cc(C(C)(C)C)nn3C(C)C)c(F)c2)ccn1` [Compound 371, N-[4-(2-{4-[3-(5-tert-Butyl-2-isopropyl-2H-pyrazol-3-yl)-ureido]-3-fluoro-phenyl}-ethyl)-pyridin-2-yl]-acetamide], the IC50 at MAPK13 [2] (read-out: MAPK13 inhibition) is greater than 1 µM.
The same measure, in the same setting: then `CC(C)(C)c1cc(NC(=O)Nc2ccc(CCc3ccnc(NC(=O)C4CC4)c3)cc2F)n(CC2CC2)n1` [Compound 372, Cyclopropanecarboxylic acid [4-(2-{4-[3-(5-tert-butyl-2-cyclopropylmethyl-2H-pyrazol-3-yl)-ureido]-3-fluoro-phenyl}-ethyl)-pyridin-2-yl]-amide], with greater than 1 µM.
Same read-out and setting: under `CC(C)(C)c1cc(NC(=O)Nc2ccc(CCc3ccnc(NC(=O)C4CC4)c3)cc2F)on1` [Compound 374, Cycloproprinecarboxylic acid [4-(2-{4-[3-(3-tert-butyl-isoxazol-5-yl)-ureido]-3-fluoro-phenyl}-ethyl)-pyridin-2-yl]-amide] stands greater than 1 µM; under `CC(C)n1nc(C(C)(C)C)cc1NC(=O)Nc1ccc(CCc2ccnc(NC(=O)C3CC3)c2)cc1F` [Compound 375, Cyclopropanecarboxylic acid [4-(2-{4-[3-(5-tert-butyl-2-isopropyl-2H-pyrazol-3-yl)-ureido]-3-fluoro-phenyl}-ethyl)-pyridin-2-yl]-amide], greater than 1 µM.
Still for that read-out and setting: under `CC(C)(C)c1cccc(NC(=O)Nc2ccc(CCc3ccnc(NC(=O)C4CC4)c3)cc2F)c1` [Compound 376, Cyclopropancearboxylic acid [4-(2-{4-[3-(3-tert-butyl-phenyl)-ureido]-3-fluoro-phenyl}-ethyl)-pyridin-2-yl]-amide] stands greater than 1 µM; under `CC(=O)Nc1cc(CCc2ccc(NC(=O)Nc3cccc(C(C)(C)C)c3)c(F)c2)ccn1` [Compound 377, N-[4-(2-{4-[3-(3-tert-Butyl-phenyl)-ureido]-3-fluoro-phenyl}-ethyl)-pyridin-2-yl]-acetamide], greater than 1 µM.
As to `CC(C)(C)c1cc(NC(=O)Nc2ccc(CCc3ccnc(NC(=O)C4CC4)c3)cc2F)no1` [Compound 378, Cyclopropanecarboxylic acid [4-(2-{4-[3-(5-tert-butyl-isoxazol-3-yl)-ureido]-3-fluoro-phenyl}-ethyl)-pyridin-2-yl]-amide], the IC50 on MAPK13 [2] (read-out: MAPK13 inhibition) is greater than 1 µM.
`CC(=O)Nc1cc(CCc2cnc(NC(=O)Nc3cc(C(C)(C)C)no3)s2)ccn1` [Compound 382]: the IC50 on MAPK13 [2] (read-out: MAPK13 inhibition) is less than 0.25 µM.
Same read-out and setting: then `CC(C)(C)c1ccc(Cl)c(NC(=O)Nc2ncc(CCc3ccncc3)s2)c1` [Compound 388, 1-(5-tert-Butyl-2-chloro-phenyl)-3-[5-(2-pyridin-4-yl-thiazol)-thiazol-2-yl]-urea], with greater than 1 µM; and `CC(C)n1nc(C(C)(C)C)cc1NC(=O)Nc1ncc(CCc2ccncc2)s1` [Compound 389, 1-(5-tert-Butyl-2-isopropyl-2H-pyrazol-3-yl)-3-[5-(2-pyridin-4-yl-ethyl)-thiazol-2-yl]-urea], with greater than 1 µM; and `CC(C)(C)c1cc(NC(=O)Nc2ncc(CCc3ccnc(NC(=O)C4CC4)c3)s2)n(-c2ccc(Cl)cc2)n1` [Compound 390, N-[4-[2-[2-[[5-tert-butyl-2-(4-chlorophenyl)pyrazol-3-yl]carbamoylamino]thiazol-5-yl]ethyl]-2-pyridyl]cyclopropanecarboxamide], with less than 0.25 µM.
Same read-out and setting: under `CC(=O)Nc1cc(Oc2ccc(NC(=O)Nc3cc(C(C)(C)C)nn3C(C)C)c(F)c2)ccn1` [Compound 392, N-(4-{4-[3-(5-tert-Butyl-2-isopropyl-2H-pyrazol-3-yl)-ureido]-3-fluoro-phenoxy}-pyridin-2-yl)-acetamide] stands less than 0.25 µM.
On to `CC(=O)Nc1cc(Oc2ccc(NC(=O)Nc3cc(C(C)(C)C)on3)c(F)c2)ccn1` [Compound 394, N-(4-{4-[3-(5-tert-Butyl-isoxazol-3-yl)-ureido]-3-fluoro-phenoxy}-pyridin-2-yl)-acetamide], for which the IC50 was 0.009 µM at MAPK13 [2] (read-out: MAPK13 IC50) and less than 0.25 µM at MAPK13 [2] (read-out: MAPK13 inhibition).
As for `CC(=O)Nc1cc(Oc2ccc(NC(=O)Nc3cc(C(C)(C)C)no3)c(F)c2)ccn1` [Compound 395, N-(4-{4-[3-(3-tert-Butyl-isoxazol-5-yl)-ureido]-3-fluoro-phenoxy}-pyridin-2-yl)-acetamide], the IC50 at MAPK13 [2] (read-out: MAPK13 IC50) was 0.011 µM; at MAPK13 [2] (read-out: MAPK13 inhibition), less than 0.25 µM.
For the molecule `CC(=O)Nc1cc(Oc2ccc(NC(=O)Nc3cc([Si](C)(C)C)ccc3F)c(F)c2)ccn1` [Compound 399, N-(4-{3-Fluoro-4-[3-(2-fluoro-5-trimethylsilanyl-phenyl)-ureido]-phenoxy}-pyridin-2-yl)-acetamide], on MAPK13 [2] (read-out: MAPK13 inhibition), the IC50 was less than 0.25 µM.
The same measure, in the same setting: then `CC(=O)Nc1cc(CCc2cnc(NC(=O)Nc3cc([Si](C)(C)C)ccc3F)s2)ccn1` [Compound 400, N-[4-(2-{2-[3-(2-Fluoro-5-trimethylsilanyl-phenyl)-ureido]-thiazol-5-yl}-ethyl)-pyridin-2-yl]-acetamide], with less than 0.25 µM; and `CC(=O)Nc1cc(COc2ccc(NC(=O)Nc3cc(C(C)(C)C)nn3-c3ccc(C)cc3)c(F)c2)ccn1` [Compound 402, N-(4-{4-[3-(5-tert-Butyl-2-p-tolyl-2H-pyrazol-3-yl)-ureido]-3-fluoro-phenoxymethyl}-pyridin-2-yl)-acetamide], with less than 0.25 µM; and `CC(=O)Nc1cc(Oc2ccc(NC(=O)Nc3cc(C4CC4)ccc3Cl)c(F)c2)ccn1` [Compound 423, N-(4-{4-[3-(2-Chloro-5-cyclopropyl-phenyl)-ureido]-3-fluoro-phenoxy}-pyridin-2-yl)-acetamide], with less than 0.25 µM.
Same read-out and setting: then `O=C(CO)Nc1cc(Oc2ccc(NC(=O)Nc3cc(C4CC4)ccc3F)c(F)c2)ccn1` [Compound 424, N-(4-{4-[3-(5-Cyclopropyl-2-fluoro-phenyl)-ureido]-3-fluoro-phenoxy}-pyridin-2-yl)-2-hydroxy-acetamide], with less than 0.25 µM; and `COCCC(=O)Nc1cc(Oc2ccc(NC(=O)Nc3cc(C4CC4)ccc3F)c(F)c2)ccn1` [Compound 425, N-(4-{4-[3-(5-Cyclopropyl-2-fluoro-phenyl)-ureido]-3-fluoro-phenoxy}-pyridin-2-yl)-3 methoxypropionamide], with less than 0.25 µM.
On the same count and under the same terms, under `CC(C)(C)c1ccc(Cl)c(NC(=O)Nc2ccc(Oc3ccnc(NC(=O)CO)c3)cc2F)c1` [Compound 426, N-(4-{4-[3-(5-tert-Butyl-2-chloro-phenyl)-ureido]-3-fluoro-phenoxy}-pyridin-2-yl)-2-hydroxy-acetamide] stands less than 0.25 µM; under `COCCC(=O)Nc1cc(Oc2ccc(NC(=O)Nc3cc(C(C)(C)C)ccc3Cl)c(F)c2)ccn1` [Compound 427, N-(4-{4-[3-(5-tert-Butyl-2-chloro-phenyl)-ureido]-3-fluoro-phenoxy}-pyridin-2-yl)-3-methoxy-propionamide], less than 0.25 µM.
`CC(C)(C)c1ccc(Cl)c(NC(=O)Nc2ccc(Oc3ccnc(N)c3)cc2F)c1` [Compound 428, 1-[4-(2-Amino-pyridin-4-yloxy)-2-fluoro-phenyl]-3-(5-tert-butyl-2-chloro-phenyl)-urea]: the IC50 on MAPK13 [2] (read-out: MAPK13 inhibition) was greater than 1 µM.
